Structures can show the parent of a compound that is named as a salt. Where two headings read alike, the source gives them in different places.
Key:
BRD4 = target: T1, BRD4 (Homo sapiens, UniProt O60885); test: BRD4 Degradation Flow Cytometry Assay in MV4-11 cells; assay type: cell-based; conditions: for Percentage BRD4 degradation vs untreated: 24 hr, highest degradation percentage observed at concentrations between 40-1000 nM
T1 construct: endogenous in cells; host or cells: MV4-11
Experimental: Protein Degradation Flow Cytometry
MV4-11 cells were plated in a 24-well tissue culture plate at a density of 350,000 cells/450 μL/well and incubated in 37° C./5% CO2 for 1 hr. Cells were then treated with compounds at various concentrations and incubated in 37° C./5% CO2 for 24 hr. Cells were harvested, washed once, counted and 200 μL of 1% paraformaldehyde/PBS was added and incubated for 15 min at room temperature. 200 μL of 1×PBS/0.4% Triton X-100 was added and incubated for 15 min at 4° C. Cells were washed three times and resuspended in 50 μL of 1×PBS/0.2% Triton X-100. 2 μL/10^6 cells of anti-BRD4 antibody (ABCAM, #128874) was added and mixed by pipetting up and down. Cells were incubated for 30 min at room temperature in the dark, washed three times and resuspended in 50 μL of 1×PBS/0.2% Triton X-100. Goat anti-rabbit IgG H&L antibody (1:2000 dilution) was added and mixed by pipetting up and down and incubated for 30 min at room temperature in the dark. Finally, cells were washed three times and resuspended in 200 μL of PBS for flow cytometric analysis.

MYC protein = test: MYC Protein Expression HTRF Assay in MV4-11 cells; assay type: cell-based; conditions: Homo sapiens, 24 hr treatment
Experimental: MYC protein expression was measured using the Human c-Myc Cell-based Assay Kit (Cisbio, #63ADK053PEG), a homogeneous time resolved fluorescence (HTRF) assay. […] Cells were collected by centrifugation, supernatant removed by aspiration and 10 μL of lysis buffer was added and incubated for 45 min at room temperature while shaking. In a 384-well plate, 10 μL of cell lysate/well was combined with 10 μL of premixed antibody solution containing anti-human MYC-Eu3+ Cryptate prepared in detection buffer and incubated overnight at room temperature, whereupon the signal was measured. The ratio of the acceptor and donor emission signals for each individual well were calculated (ratio=665 nm/620 nm[…]).

MV4-11 cells = test: MV4-11 Cytotoxicity Assay; assay type: cell-based, human; conditions: Homo sapiens, read-out: MV4-11 cytotoxicity
BRD4 (BD1+BD2) = target: T2, BRD4 (BD1+BD2) (Homo sapiens, UniProt O60885); test: BRD4 (BD1 + BD2) Binding HTRF Assay; conditions: read-out: BRD4 Binding Potency
T2 construct: 1.8 μg/ml recombinant BRD4 (BD1+BD2 domains) protein
Experimental: A master mix was prepared with assay buffer, 1.8 μg/ml recombinant BRD4 (BD1+BD2 domains) protein, and 200-fold dilutions of Tb-labeled donor and dye-labeled acceptor. 40-fold dilutions of acetylated and non-acetylated ligands were prepared in 1×BRD TR-FRET assay buffer. Also, a serial 3-fold dilution of each compound was prepared ranging from 40 μM down until 2.0 nM. In a 384-well plate, 5 μl diluted ligand and 5 μl of compound dilution were added per well to duplicate wells and mixed by brief shaking. Then 10 μl of master mix was added per well, mixed by brief shaking, incubated at 25° C. for 2 hr and fluorescence was measured on an En Vision Plate Reader. The 665 nm/615 nm ratio was calculated from EnVision raw data. Data were normalized using whole-plate averages of “positive” and “negative” readings. A four-parameter “log[inhibitor] vs. response” curve was fitted using GraphPad Prism 7.0.

HSP90α = HSP90α (Homo sapiens, UniProt P07900); test: HSP90α Binding Fluorescent Polarization (FP) Assay; conditions: competition with FITC-geldanamycin; read-out: HSP90 Binding Potency
Experimental: HSP90α Binding Fluorescent Polarization (FP) Assay
A master mix was prepared with assay buffer, BSA and FITC-geldanamycin. In a 96-well plate, a serial 3-fold dilution of each compound was prepared ranging from 40 μM down until 2.0 nM. Also in a 96-well plate, recombinant HSP90α protein was diluted to 28 μg/ml. Then, in a 384-well plate, 10 μl of master mix and 5 μl of compound dilution were added per well to duplicate wells and mixed by brief shaking. Then 5 μl of diluted HSP90α protein was added per well, mixed by brief shaking, incubated at 25° C. for 30, 60 and 120 min and fluorescence was measured on an En Vision Plate Reader. Background-subtracted mP values were calculated from En Vision raw data and a four-parameter “log[inhibitor] vs. response” curve was fitted using GraphPad Prism 7.0.

[1] = tested on: SU-DHL-4 diffuse large B-cell lymphoma xenograft; test: SU-DHL-4 DLBCL xenograft model in mice
Experimental: 10 μL the cell proliferation reagent CCK-8 (WST-8) was added into each well and incubated at 37° C./5% CO2 for 3-4 hr and the absorbance at 450 nm measured with an En Vision Plate Reader.
5×10^6 MV-4-11 or 1×10^7 SU-DHL-4 cells were collected and re-suspended in 0.1 mL of serum-free media with Matrigel (1:1 v/v) per mouse for subcutaneous inoculation in isoflurane anesthetized male BALB/c nude or C.B-17 scid mice, respectively (treated in accordance with AAALAC animal welfare guidelines). When the average tumor volumes reached 100-200 mm^3, tumor volume outliers were removed and the remaining animals randomly divided into groups of 6-8 with similar average tumor volumes in each group. […] Animals were intravenously dosed at 25 mg/kg, 50 mg/kg or 100 mg/kg 1×/week for 3 or 4 weeks. The appearance and behavior of each mouse was observed and recorded daily. Body weights and tumor volumes were measured and recorded every 2-4 days and the results were expressed as group means±SEM. Pairwise statistical comparisons between groups were performed by one-way ANOVA, and p<0.05 was considered statistically significant.

[2] = 100 mg/kg intravenous 1×/week, after 4 weeks of dosing

SMILES | Percentage BRD4 degradation vs untreated (BRD4; MV4-11 cells) | IC50 (MYC protein) [µM] | IC50 (MV4-11 cells; MV4-11, 72 h) [µM] | IC50 (HSP90α) [µM] | other results
Cc1sc2c(c1C)C(c1ccc(Cl)cc1)=N[C@@H](CC(=O)N1CCC(CN3CCN(Cc4ccc(-n5c(O)nnc5-c5cc(C(C)C)c(O)cc5O)cc4)CC3)CC1)c1nnc(C)n1-2 [Compound 40, 2-((6S)-4-(4-chlorophenyl)-2,3,9-trimethyl-6H-thieno[3,2-f][1,2,4]triazolo[4,3-a][1,4]diazepin-6-yl)-1-(4-((4-(4-(3-(2,4-dihydroxy-5-isopropylphenyl)-5-hydroxy-4H-1,2,4-triazol-4-yl)benzyl)piperazin-1-yl)methyl)piperidin-1-yl)ethanone, trifluoroacetic acid] | A (Degradation > 50%) | < 0.1 |  |  | ability to degrade BRD4 after pretreatment (BRD4; cells pretreated with a combination of a HSP90 binder and (+)-JQ1): significantly reduced
Cc1sc2c(c1C)C(c1ccc(Cl)cc1)=N[C@@H](CCN1CCC(CN3CCN(Cc4ccc(-n5c(O)nnc5-c5cc(C(C)C)c(O)cc5O)cc4)CC3)CC1)c1nnc(C)n1-2 [Compound 76, trifluoroacetic acid] |  |  | < 0.1 | 0.1 to 1 | IC50 (BRD4 (BD1+BD2)): > 1 µM
Cc1sc2c(c1C)C(c1ccc(Cl)cc1)=N[C@@H](CC(=O)NC(C)c1ccc(CN3CCC(Cc4ccc(-n5c(O)nnc5-c5cc(C(C)C)c(O)cc5O)cc4)CC3)cc1)c1nnc(C)n1-2 (stereo in doubt) [Compound 82, 2-((S)-4-(4-chlorophenyl)-2,3,9-trimethyl-6H-thieno[3,2-f][1,2,4]triazolo[4,3-a][1,4]diazepin-6-yl)-N—((R)-1-(4-((4-(4-(3-(2,4-dihydroxy-5-isopropylphenyl)-5-hydroxy-4H-1,2,4-triazol-4-yl)benzyl)piperidin-1-yl)methyl)phenyl)ethyl)acetamide hydrochloride] |  |  |  | 0.1 to 1 | IC50 (MV4-11 cells; MV4-11, 72 hr, CCK-8): < 0.1 µM
Cc1sc2c(c1C)C(c1ccc(Cl)cc1)=N[C@H](CC(=O)N1CCC(CN3CCN(Cc4ccc(-n5c(O)nnc5-c5cc(C(C)C)c(O)cc5O)cc4)CC3)CC1)c1nnc(C)n1-2 [Compound 5, 2-((6R)-4-(4-chlorophenyl)-2,3,9-trimethyl-6H-thieno[3,2-f][1,2,4]triazolo[4,3-a][1,4]diazepin-6-yl)-1-(4-((4-(4-(3-(2,4-dihydroxy-5-isopropylphenyl)-5-hydroxy-4H-1,2,4-triazol-4-yl)benzyl)piperazin-1-yl)methyl)piperidin-1-yl)ethanone, trifluoroacetic acid] | C (Degradation < 10%) | < 0.1 | < 0.1 |  | BRD4 degradation (in words) (BRD4; MV4-11 cells, flow cytometry): does not degrade BRD4
CCc1cc(-c2nnc(C(=O)NCC(F)(F)F)n2-c2ccc(CN3CCN(CC4CCN(C(=O)C[C@@H]5N=C(c6ccc(Cl)cc6)c6c(sc(C)c6C)-n6c(C)nnc65)CC4)CC3)cc2)c(O)cc1O.Cl [Compound 78, 4-(4-((4-((1-(2-((6S)-4-(4-chlorophenyl)-2,3,9-trimethyl-6H-thieno[3,2-f][1,2,4]triazolo[4,3-a][1,4]diazepin-6-yl)acetyl)piperidin-4-yl)methyl)piperazin-1-yl)methyl)phenyl)-5-(5-ethyl-2,4-dihydroxyphenyl)-N-(2,2,2-trifluoroethyl)-4H-1,2,4-triazole-3-carboxamide hydrochloride] |  |  |  |  | tumor growth inhibition (FIG. 4a) [1, 2]: significant tumor growth inhibition; tumor vs control (T/C) value [1, 2]: 28%; animal deaths and body weights (FIG. 4b) ([1]; any dose level, SU-DHL-4 xenograft): No animal deaths or significant effects on body weights were observed

Source: US12540143B2, “Methods and compositions for targeted protein degradation” (Ranok Therapeutics (Hangzhou) Co. Ltd., priority 2019, dated 2026)
